Measurements as given in patent US6479519B1, “Substituted anilides” (Aventis Pharma Limited, priority 1997, dated 2002).

| melting point | Structure (SMILES) |
| --- | --- |
| 190 °C (dec.) | COc1cc(CC(=O)Nc2ccc([C@@H](CC(=O)O)NC(=O)c3ccc[n+]([O-])c3)cc2)ccc1NC(=O)Nc1ccccc1C [Example 11, (R)-3-[(1-oxido-pyridine-3-carbonyl)amino]-3-(4-{3-methoxy-4-[3-(2-methylphenyl)ureido]-phenylacetylamino}phenyl)-propanoic acid] |
| 105 to 108 °C (dec.) | COc1cc(N(C(C)=O)c2ccc([C@@H](CC(=O)O)NC(=O)CN)cc2)ccc1NC(=O)Nc1ccccc1C [Example 10, (R)-3-[(2-amino-acetyl)amino]-3-(4-{3-methoxy-4-[3-(2-methylphenyl)ureido]phenyl-acetylamino}phenyl)propanoic acid] |
| 220 to 222 °C | COc1cc(CC(=O)Nc2ccc([C@@H](CC(=O)O)NC(=O)CCCC(=O)O)cc2)ccc1NC(=O)Nc1ccccc1C [Example 5(h), (R)-3-(4-carboxybutanoyl-amino)-3-(4-{3-methoxy-4-[3-(2-methylphenyl)ureido]phenylacetylamino}-phenyl)-propanoic acid] |
